According to patent publication US10526316B2, “Quinoxaline and pyridopyrazine derivatives as PI3Kβ inhibitors” (Janssen Pharmaceutica NV, priority 2015, dated 2020):
pIC50, pKd: −log10 of the molar value. Where two headings read alike, the source gives them in different places.

What was measured:
[1] = system: Akt phosphorylated at Thr308 in PC-3 cells; assay: Cellular assay: phosphorylation of Akt at Thr308 in PC-3 cells (MSD ELISA); type: cell-based; settings: PC-3 cells, 60 min compound incubation, MSD ELISA, read-out: IC50 pAkt_Thr308
Summary of the method: (§1)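 Electrochemiluminescent sandwich ELISA read-out: phospho-specific capture (Ser473 or Thr308), Sulfo-tag anti-total Akt detection, signal proportional to phospho-Akt. Cells treated 60 min at 37° C with compound, DMSO 0.3%. IC50 fitted from five concentrations.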

[2] = system: Akt phosphorylated at Ser473 in PC-3 cells; assay: Cellular assay: phosphorylation of Akt at Ser473 in PC-3 cells (MSD ELISA); type: cell-based; settings: PC-3 cells, 60 min compound incubation, MSD ELISA, read-out: IC50 pAkt_S473
Summary of the method: as §1

PI3Kβ = target: T1, PI3Kβ (Homo sapiens, UniProt P42338); assay: Enzyme binding assay (KINOMEscan, DiscoveRx); settings: PIK3Cβ_h, read-out: Kd PIK3Cβ_h
T1 construct: purchased DiscoveRx Corporation, San Diego (contract service, KINOMEscan)
T1 sequence (P42338 whole entry): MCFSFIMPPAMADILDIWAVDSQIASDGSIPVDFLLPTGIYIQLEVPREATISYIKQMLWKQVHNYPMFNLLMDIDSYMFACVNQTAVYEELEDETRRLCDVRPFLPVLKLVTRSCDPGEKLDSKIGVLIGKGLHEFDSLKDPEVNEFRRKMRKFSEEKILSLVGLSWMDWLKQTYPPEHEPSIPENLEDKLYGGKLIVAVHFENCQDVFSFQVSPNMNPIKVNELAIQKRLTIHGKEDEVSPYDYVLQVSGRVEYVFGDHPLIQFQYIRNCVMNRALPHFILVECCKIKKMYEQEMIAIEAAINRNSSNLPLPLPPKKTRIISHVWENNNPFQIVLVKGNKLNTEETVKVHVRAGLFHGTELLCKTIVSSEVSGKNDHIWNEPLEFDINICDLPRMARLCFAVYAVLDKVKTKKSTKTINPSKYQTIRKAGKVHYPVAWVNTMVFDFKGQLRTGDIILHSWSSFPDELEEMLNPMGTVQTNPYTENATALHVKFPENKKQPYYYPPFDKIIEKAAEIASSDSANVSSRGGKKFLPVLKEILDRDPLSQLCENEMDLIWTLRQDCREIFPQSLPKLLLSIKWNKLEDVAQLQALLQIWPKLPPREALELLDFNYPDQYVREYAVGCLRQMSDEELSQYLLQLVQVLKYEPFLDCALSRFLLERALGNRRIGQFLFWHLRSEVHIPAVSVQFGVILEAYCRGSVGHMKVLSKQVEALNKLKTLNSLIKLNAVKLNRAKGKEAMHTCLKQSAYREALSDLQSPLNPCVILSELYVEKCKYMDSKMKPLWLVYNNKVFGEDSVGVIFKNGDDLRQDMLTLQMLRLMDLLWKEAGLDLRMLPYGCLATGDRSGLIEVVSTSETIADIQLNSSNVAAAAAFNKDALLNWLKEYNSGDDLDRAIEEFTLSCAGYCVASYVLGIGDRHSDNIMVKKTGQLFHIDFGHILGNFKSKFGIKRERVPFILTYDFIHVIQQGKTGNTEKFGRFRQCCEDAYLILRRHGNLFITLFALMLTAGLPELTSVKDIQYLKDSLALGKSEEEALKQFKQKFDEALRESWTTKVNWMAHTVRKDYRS
Summary of the method: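 Reported Kd (nM) reflects inhibitor binding to the kinase, as measured by KINOMEscan technology.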

kinase enzymes [3] = target: T2, kinase enzymes (Homo sapiens, UniProt P42345); assay: Enzyme binding assay (KINOMEscan, DiscoveRx), further kinases of Table A; settings: MTOR_h
T2 construct: purchased DiscoveRx Corporation, San Diego (contract service, KINOMEscan)
Summary of the method: (§2)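 Kinase binding measured via KINOMEscan, reported as affinity.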

kinase enzymes [4] = target: T3, kinase enzymes (Homo sapiens, UniProt P48736); assay: as above; settings: PIK3Cγ_h
T3 construct: purchased DiscoveRx Corporation, San Diego (contract service, KINOMEscan)
T3 sequence (P48736 whole entry): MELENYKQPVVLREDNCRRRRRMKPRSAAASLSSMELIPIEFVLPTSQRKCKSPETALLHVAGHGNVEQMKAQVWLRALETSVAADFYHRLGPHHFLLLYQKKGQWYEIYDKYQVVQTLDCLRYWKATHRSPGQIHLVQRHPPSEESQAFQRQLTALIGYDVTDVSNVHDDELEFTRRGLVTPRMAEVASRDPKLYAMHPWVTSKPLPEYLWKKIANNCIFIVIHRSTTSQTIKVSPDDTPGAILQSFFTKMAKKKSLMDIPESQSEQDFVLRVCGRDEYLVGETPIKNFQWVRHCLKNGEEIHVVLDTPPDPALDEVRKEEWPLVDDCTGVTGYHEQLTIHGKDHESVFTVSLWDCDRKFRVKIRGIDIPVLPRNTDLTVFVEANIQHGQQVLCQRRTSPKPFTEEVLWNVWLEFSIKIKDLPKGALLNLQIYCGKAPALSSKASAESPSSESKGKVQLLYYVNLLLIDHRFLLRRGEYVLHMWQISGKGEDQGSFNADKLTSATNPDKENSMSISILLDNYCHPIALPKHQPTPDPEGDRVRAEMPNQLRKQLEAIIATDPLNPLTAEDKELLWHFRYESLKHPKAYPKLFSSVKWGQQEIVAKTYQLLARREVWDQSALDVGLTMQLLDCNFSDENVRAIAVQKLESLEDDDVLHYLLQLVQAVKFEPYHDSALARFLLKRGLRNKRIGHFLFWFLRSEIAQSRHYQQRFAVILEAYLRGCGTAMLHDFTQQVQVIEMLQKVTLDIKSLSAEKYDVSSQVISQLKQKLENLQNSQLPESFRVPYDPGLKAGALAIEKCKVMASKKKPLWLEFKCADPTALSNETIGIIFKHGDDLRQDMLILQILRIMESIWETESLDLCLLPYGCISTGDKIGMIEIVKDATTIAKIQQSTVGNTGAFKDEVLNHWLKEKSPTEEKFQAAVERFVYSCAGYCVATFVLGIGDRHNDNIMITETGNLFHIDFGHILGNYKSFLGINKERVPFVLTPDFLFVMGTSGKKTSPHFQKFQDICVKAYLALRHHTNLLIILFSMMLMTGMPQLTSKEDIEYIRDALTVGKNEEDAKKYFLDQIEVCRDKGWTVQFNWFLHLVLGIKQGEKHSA
Summary of the method: as §2

kinase enzymes [5] = target: T4, kinase enzymes (Homo sapiens, UniProt P42336); assay: as above; settings: PIK3Cα_h
T4 construct: purchased DiscoveRx Corporation, San Diego (contract service, KINOMEscan)
T4 sequence (P42336 whole entry): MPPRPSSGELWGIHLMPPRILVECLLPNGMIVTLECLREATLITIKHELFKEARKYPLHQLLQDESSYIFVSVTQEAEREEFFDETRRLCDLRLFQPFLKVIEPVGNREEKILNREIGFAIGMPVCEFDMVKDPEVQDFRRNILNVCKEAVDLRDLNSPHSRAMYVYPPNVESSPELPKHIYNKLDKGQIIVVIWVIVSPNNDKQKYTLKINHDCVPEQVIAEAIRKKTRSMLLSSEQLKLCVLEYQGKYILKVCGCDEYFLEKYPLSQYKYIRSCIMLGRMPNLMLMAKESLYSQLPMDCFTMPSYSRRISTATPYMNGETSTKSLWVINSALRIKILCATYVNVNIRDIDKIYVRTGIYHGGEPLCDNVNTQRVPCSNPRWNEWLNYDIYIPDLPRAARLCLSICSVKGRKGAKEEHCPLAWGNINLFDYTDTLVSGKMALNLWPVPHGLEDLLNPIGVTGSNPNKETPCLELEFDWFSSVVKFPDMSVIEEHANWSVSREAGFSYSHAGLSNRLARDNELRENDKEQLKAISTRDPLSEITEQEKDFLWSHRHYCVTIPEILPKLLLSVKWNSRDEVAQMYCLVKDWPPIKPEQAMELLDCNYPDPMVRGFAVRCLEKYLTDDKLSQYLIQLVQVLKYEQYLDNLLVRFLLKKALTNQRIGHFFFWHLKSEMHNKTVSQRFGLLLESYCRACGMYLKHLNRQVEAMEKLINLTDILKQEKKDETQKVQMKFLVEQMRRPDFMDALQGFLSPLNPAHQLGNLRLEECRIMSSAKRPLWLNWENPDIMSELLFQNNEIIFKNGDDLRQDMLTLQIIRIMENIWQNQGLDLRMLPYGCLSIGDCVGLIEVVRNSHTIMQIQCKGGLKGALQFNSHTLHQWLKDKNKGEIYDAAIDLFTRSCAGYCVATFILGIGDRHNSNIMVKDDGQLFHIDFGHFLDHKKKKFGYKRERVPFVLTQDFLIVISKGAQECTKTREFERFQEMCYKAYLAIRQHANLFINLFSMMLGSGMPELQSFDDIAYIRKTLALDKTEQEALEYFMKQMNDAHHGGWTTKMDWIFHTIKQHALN
Summary of the method: as §2

PI3Kδ = target: T5, PI3Kδ (Homo sapiens, UniProt O00329); assay: Enzyme binding assay (KINOMEscan, DiscoveRx); settings: PIK3Cδ_h
T5 construct: purchased DiscoveRx Corporation, San Diego (contract service, KINOMEscan)
T5 sequence (O00329 1-1044): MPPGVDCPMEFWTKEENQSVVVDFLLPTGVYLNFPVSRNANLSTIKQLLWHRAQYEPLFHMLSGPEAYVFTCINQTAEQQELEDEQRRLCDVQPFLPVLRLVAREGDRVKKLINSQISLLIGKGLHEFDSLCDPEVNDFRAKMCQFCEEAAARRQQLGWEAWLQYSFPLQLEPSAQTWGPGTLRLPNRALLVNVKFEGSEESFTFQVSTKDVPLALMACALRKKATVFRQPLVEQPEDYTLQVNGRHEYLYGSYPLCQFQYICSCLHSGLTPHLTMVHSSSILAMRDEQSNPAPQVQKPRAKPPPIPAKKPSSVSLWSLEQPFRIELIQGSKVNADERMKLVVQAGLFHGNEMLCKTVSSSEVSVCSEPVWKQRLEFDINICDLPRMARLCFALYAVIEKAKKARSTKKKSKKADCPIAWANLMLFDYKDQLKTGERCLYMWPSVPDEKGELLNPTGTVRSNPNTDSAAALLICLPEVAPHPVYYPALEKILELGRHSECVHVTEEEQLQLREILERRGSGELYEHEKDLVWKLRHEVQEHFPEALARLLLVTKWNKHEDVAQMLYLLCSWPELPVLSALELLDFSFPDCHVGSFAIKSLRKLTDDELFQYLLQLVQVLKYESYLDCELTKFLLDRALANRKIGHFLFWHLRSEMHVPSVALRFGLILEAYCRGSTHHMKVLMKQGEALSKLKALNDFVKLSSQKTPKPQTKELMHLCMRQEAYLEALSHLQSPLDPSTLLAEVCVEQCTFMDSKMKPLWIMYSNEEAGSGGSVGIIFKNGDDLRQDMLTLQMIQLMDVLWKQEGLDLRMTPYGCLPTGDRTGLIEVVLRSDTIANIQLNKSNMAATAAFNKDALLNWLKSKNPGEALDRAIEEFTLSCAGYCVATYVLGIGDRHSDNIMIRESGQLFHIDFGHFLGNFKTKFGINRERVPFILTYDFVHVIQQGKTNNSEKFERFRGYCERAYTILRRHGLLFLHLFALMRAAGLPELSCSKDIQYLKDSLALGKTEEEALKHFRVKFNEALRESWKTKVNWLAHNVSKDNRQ
Summary of the method: as §2

SMILES | pIC50 ([1]; Homo sapiens, PC-3, 1 h) | pIC50 ([2]; Homo sapiens, PC-3, 1 h) | pKd (PI3Kβ) | pKd (kinase enzymes [3]) | pKd (kinase enzymes [4]) | pKd (kinase enzymes [5]) | melting point | pKd (PI3Kδ) | pIC50 [1] | pIC50 [2]
CC(Oc1ccccc1)c1cc(C(=O)N(C)C)cc2ncc(N3CCOCC3)nc12 (stereo not drawn) [Compound 151] | 7.18 | 6.31 | 8.10 | < 4.52 | 5.06 | 5.44 | 80 °C | 6.09 |  | 
CC(C)NCCNC(=O)c1cc(C(C)Nc2ccc(F)c(F)c2)c2nc(N3CCOCC3)cnc2c1 (stereo not drawn) [Compound 364] | 7.37 | 7.31 | 8.30 | < 4.52 | 4.86 | 5.13 | 80 °C | 6.09 |  | 
CC(Nc1cc(F)c(F)c(F)c1)c1cc(C(=O)NC[C@@H](C)O)cc2ncc(N3CCOCC3)nc12 (single isomer, unassigned) [Compound 284b] |  |  | 5.67 | < 4.52 | 5.29 | < 4.52 | 112 °C | < 4.52 | < 6.29 | < 6.29
CC(c1cc(C(=O)N(C)C)cc2ncc(N3CCOCC3)nc12)N(C)c1cccc(Cl)c1 (single isomer, unassigned) [Compound 140] | < 6.29 | 6.32 | 5.29 | < 4.52 | 4.60 | 4.83 | 80 °C | 4.80 |  | 
CN(C)C(=O)c1cc(N2CCC2c2ccc(F)cc2)c2nc(N3CCOCC3)cnc2c1 (stereo not drawn) [Compound 397] | < 6.29 | < 6.29 | 7.44 | < 4.52 | 4.64 | 5.57 | 70 °C | 6.18 |  | 
CC(Nc1cc(F)c(F)c(F)c1)c1cc(C(=O)NC[C@@H](C)O)cc2ncc(N3CCOCC3)nc12 (single isomer, unassigned) [Compound 284a] |  |  | 8.00 | 4.72 | 5.09 | 5.68 | 113 °C | 6.03 | 7.21 | 7.05
CC(Oc1ccc(F)c(F)c1)c1cc(C(=O)N2CC[C@H](N(C)C)C2)cc2ncc(N3CCOCC3)nc12 (single isomer, unassigned) [Compound 363a] | 7.13 | ~6.90 | 8.00 | < 4.52 | 4.57 | 4.96 | 80 °C | 6.38 |  | 
CNC(=O)c1cc(C2CCCN2c2cc(F)cc(F)c2)c2nc(N3CCOCC3)cnc2c1 (single isomer, unassigned) [Compound 40] | 8.40 | 8.15 | 9.00 | 4.76 | 6.51 | 7.25 | 80 °C | 7.46 |  | 
CCN1CCN(C(=O)c2cc(C(C)Nc3cc(F)cc(F)c3)c3nc(N4CCOCC4)cnc3c2)CC1 (stereo not drawn) [Compound 143] | 7.52 | 6.99 | 8.70 | < 4.52 | 5.02 | 5.55 | 80 °C | 6.41 |  | 
CC(Nc1cc(F)cc(F)c1)c1cc(C(=O)NS(N)(=O)=O)cc2ncc(N3CCOCC3)nc12 (single isomer, unassigned) [Compound 243b] |  |  | 7.85 | 5.87 | 5.71 | 5.78 | 200 °C | 5.47 | < 6.29 | < 6.29
CC(Nc1cc(F)cc(F)c1)c1cc(CN2CCn3nccc3C2)cc2ncc(N3CCOCC3)nc12 (single isomer, unassigned) [Compound 210] |  |  | 7.92 | < 4.52 | < 4.52 | 5.50 | 80 °C | 5.99 | 6.82 | 6.61
CC(Nc1cc(F)cc(F)c1)c1cc(CNCC(F)(F)F)cc2ncc(N3CCOCC3)nc12 (single isomer, unassigned) [Compound 162] |  |  | 8.05 | < 4.52 | 4.61 | 5.40 | 80 °C | 5.91 | 7.04 | 6.68
CC(Nc1ccc(F)c(F)c1)c1cc(C(=O)N[C@H]2CCNC2)cc2ncc(N3CCOCC3)nc12 (single isomer, unassigned) [Compound 374b] |  |  | 7.01 | < 4.52 | 4.66 | 4.87 | 130 °C | 5.24 | < 6.29 | < 6.29
CC(Oc1cc(F)cc(F)c1)c1cc(-c2cnc[nH]2)cc2ncc(N3CCOCC3)nc12 (single isomer, unassigned) [Compound 22] |  |  | 5.25 | 4.66 | < 4.52 | 4.82 | 183 °C | 4.73 | < 6.29 | < 6.29
CNCCNC(=O)c1cc(C(C)N(C)c2cccc(F)c2)c2nc(N3CCOCC3)cnc2c1 (stereo not drawn) [Compound 130] | 7.19 | 7.05 | 9.30 | 5.21 | 6.62 | 6.44 | 159 °C | 6.87 |  | 
CC(Sc1ccccc1)c1cc(C(=O)N(C)C)cc2ncc(N3CCOCC3)nc12 (stereo not drawn) [Compound 135] | < 6.29 | < 6.29 | 6.71 | 4.95 | 4.76 | 5.00 | 144 °C | 5.42 |  | 
CC(Nc1ccc(F)c(F)c1)c1cc(C(=O)N2CCN3CCC[C@@H]3C2)cc2ncc(N3CCOCC3)nc12 (stereo partly drawn) [Compound 347] | 7.20 |  | 8.40 | < 4.52 | 4.54 | 5.43 | 170 °C | 6.39 |  | 6.66
CC(Nc1ccc(F)c(F)c1)c1cc(C(=O)N2C[C@@H](C)N[C@@H](C)C2)cc2ncc(N3CCOCC3)nc12 (single isomer, unassigned) [Compound 357a] | < 6.29 | < 6.29 | 5.48 | < 4.52 | < 4.52 | 4.64 | 116 °C | 4.79 |  | 
CC(Nc1ccc(F)c(F)c1)c1cc(C(=O)NCC(C)(C)O)cc2ncc(N3CCOCC3)nc12 (single isomer, unassigned) [Compound 348a] |  | 6.54 | 8.00 | < 4.52 | 4.53 | 5.52 | 102 °C | 6.04 | 6.86 | 
OC1CN(Cc2cc(C3CCCN3c3cc(F)cc(F)c3)c3nc(N4CCOCC4)cnc3c2)C1 (stereo not drawn) [Compound 76] | 8.15 | 8.15 | 10.00 | < 4.52 | 6.60 | 7.30 | 90 °C | 7.72 |  | 
CN(C)C(=O)c1cc(NCc2cc(F)cc(F)c2)c2nc(N3CCOCC3)cnc2c1 [Compound 278] | 6.75 | 6.53 | 8.10 | 4.71 | 4.80 | 5.68 | 158 °C | 5.76 |  | 
